The results in this text go back to ChEMBL document CHEMBL1201862, “PubChem BioAssay data set” (2004).

Some test systems named below: LXFL 529; RPMI-8226; SK-MEL-2; HT-29; RXF 393; XF498; HOP-62; SK-OV-3; DMS-114; HOP-18; KM-20L2; CAKI-1; SK-MEL-5; T47D; MDA-MB-435; NCI/ADR-RES; MDA-MB-231; MDA-N; DU-145; DMS-273.
Test in all cases: NCI anticancer screen, dose series, 48 h

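Method: 48-hour compound exposure of cells in 96-well plates, five concentrations, linear interpolation of endpoints. At the GI50, growth is halved.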 Activity calls are given as the source filed them. No stated cut-off is given here; in the data, active = GI50 up to about 1.1 µM and inactive = higher. Where only a bound is given, the exact number is not on record here.

Consider `Cc1cc(NS(=O)(=O)c2ccc(NC(=O)c3cccc4c(Nc5ccc(S(N)(=O)=O)cc5)c5ccccc5nc34)cc2)no1`, for which the GI50 in the experiment on LXFL 529 was > 100 µM (inactive); with RPMI-8226, 87.9 µM (inactive); in the experiment with SK-MEL-2, > 100 µM (inactive); in the experiment with HT-29, > 100 µM (inactive); in the experiment with RXF 393 it was > 100 µM (inactive); with XF498 it was 59.7 µM (inactive). Also, the GI50 in the experiment with HOP-62, with SK-OV-3 and in the experiment on DMS-114 was > 100 µM (inactive) in each case.
`Cc1ccc(NC(=O)c2cccc([N+](=O)[O-])c2O)c(C)c1`: the GI50 in the experiment with LXFL 529 was 14.7 µM (inactive); in the experiment with RPMI-8226, 11.6 µM (inactive); in the experiment on SK-MEL-2, 7.73 µM (inactive); in the experiment with HT-29 it was 29.4 µM (inactive); in the experiment on HOP-18, 1.02 µM (active); in the experiment with KM-20L2 it was 21.5 µM (inactive). Also, the GI50 in the experiment with CAKI-1 was 6.97 µM (inactive); with HOP-62, 33.3 µM (inactive); in the experiment on SK-OV-3, 22.9 µM (inactive); in the experiment on DMS-114, 20.1 µM (inactive).
With `CSc1nc(N)c2c(-c3ccccc3)c3c(nc2n1)CCCC3`, the GI50 in the experiment on RPMI-8226 was > 100 µM (inactive); with HT-29, > 100 µM (inactive); in the experiment with RXF 393 it was 29.7 µM (inactive); in the experiment on SK-MEL-5 it was > 100 µM (inactive); in the experiment with T47D, > 100 µM (inactive); in the experiment on MDA-MB-435 it was > 100 µM (inactive). For the same molecule, the GI50 is 33 µM (inactive) in the experiment on NCI/ADR-RES; > 100 µM (inactive) with MDA-MB-231; > 100 µM (inactive) in the experiment with CAKI-1; 98.4 µM (inactive) in the experiment on HOP-62; 87.7 µM (inactive) with SK-OV-3; > 100 µM (inactive) in the experiment with MDA-N. Also, the GI50 with DU-145 was > 100 µM (inactive).
Regarding `COc1cc([N+](=O)[O-])ccc1NC(=O)c1cccc([N+](=O)[O-])c1O`, the GI50 is 21.3 µM (inactive) in the experiment on LXFL 529; 10.3 µM (inactive) with RPMI-8226; 17.5 µM (inactive) in the experiment with SK-MEL-2; 25.5 µM (inactive) with HT-29; 6.46 µM (inactive) in the experiment on SK-MEL-5; 5.32 µM (inactive) with HOP-18. The GI50 in the experiment on KM-20L2 was 27.5 µM (inactive); in the experiment on CAKI-1, 17 µM (inactive); in the experiment on HOP-62, 36.6 µM (inactive); with SK-OV-3 it was 23.1 µM (inactive); in the experiment with DMS-114 it was 22.7 µM (inactive).
For the molecule `CN(C)c1nc(N(C)C)nc(N(C)CN(C)c2ccccc2)n1`, the GI50 is > 100 µM (inactive) in the experiment on LXFL 529; > 100 µM (inactive) in the experiment on SK-MEL-2; > 100 µM (inactive) in the experiment on HT-29; > 100 µM (inactive) in the experiment with RXF 393; 88.7 µM (inactive) in the experiment on SK-MEL-5; > 100 µM (inactive) in the experiment with HOP-18. The GI50 in the experiment with XF498 is > 100 µM (inactive); in the experiment with SK-OV-3, > 100 µM (inactive); in the experiment with DMS-114, 63.5 µM (inactive).
`COc1ccc(-c2nnc(-c3ccncc3)o2)cc1`: the GI50 in the experiment on RPMI-8226, in the experiment on SK-MEL-2, with HT-29, in the experiment on RXF 393, with SK-MEL-5 and in the experiment with T47D was > 100 µM (inactive) each time. Moreover, the GI50 in the experiment with MDA-MB-435, in the experiment on NCI/ADR-RES, with MDA-MB-231, in the experiment with CAKI-1, with HOP-62 and in the experiment with SK-OV-3 was > 100 µM (inactive) in each case. For the same molecule, the GI50 in the experiment with MDA-N and in the experiment with DU-145 was > 100 µM (inactive) in each case.
For `CC(C)(C)OC(=O)NCC(=O)NC1c2ccsc2/C(=N/O)[C@H]1O` (stereo partly specified), the GI50 in the experiment on SK-MEL-2, with HT-29, in the experiment with RXF 393, in the experiment on SK-MEL-5, with T47D and in the experiment with MDA-MB-435 was > 100 µM (inactive) throughout. Also, the GI50 in the experiment on NCI/ADR-RES, with MDA-MB-231, with CAKI-1, with HOP-62, with SK-OV-3 and in the experiment with MDA-N was > 100 µM (inactive) throughout. In addition, in the experiment with DU-145, the GI50 was > 100 µM (inactive).
Turning to `COc1cc2c(cc1OC)C(C1(O)CCCCC1)NCC2` (stereo unspecified), the GI50 in the experiment on LXFL 529, in the experiment on DMS-273, in the experiment on RPMI-8226, with SK-MEL-2, with HT-29 and in the experiment on RXF 393 was > 100 µM (inactive) throughout. The GI50 with SK-MEL-5, with KM-20L2, in the experiment on XF498, in the experiment on HOP-62 and with SK-OV-3 was > 100 µM (inactive) each time.
As for `O=C(NO)c1coc2ccccc2c1=O`, the GI50 in the experiment on LXFL 529 is > 100 µM (inactive); with DMS-273 it was > 100 µM (inactive); in the experiment with RPMI-8226, > 100 µM (inactive); in the experiment with SK-MEL-2, 74.3 µM (inactive); in the experiment on HT-29 it was > 100 µM (inactive); in the experiment on RXF 393, 72.9 µM (inactive). For the same molecule, the GI50 is > 100 µM (inactive) in the experiment with SK-MEL-5; > 100 µM (inactive) in the experiment with KM-20L2; 8.26 µM (inactive) in the experiment on CAKI-1; 12.3 µM (inactive) with SK-OV-3; 82 µM (inactive) in the experiment with DMS-114.
Consider `CC(=C/c1ccccc1)/C=C1/NC(=S)N(/C=C2\C(=O)Oc3ccccc3C2=O)C1=O`, for which the GI50 in the experiment on RPMI-8226 is 26.6 µM (inactive); in the experiment on SK-MEL-2, > 100 µM (inactive); in the experiment with RXF 393, 0.0664 µM (active); with SK-MEL-5 it was 25.6 µM (inactive); in the experiment with T47D, 1.76 µM (inactive); in the experiment on MDA-MB-435, 45.1 µM (inactive). Besides, the GI50 in the experiment on NCI/ADR-RES is 42.2 µM (inactive); in the experiment with MDA-MB-231 it was 45.9 µM (inactive); in the experiment with HOP-62, 83.2 µM (inactive); with MDA-N, 96.6 µM (inactive); in the experiment on DU-145, 45.8 µM (inactive).
For the molecule `O=C1c2ccccc2OCC12OC21C=CC(Cl)=CC1` (stereo unspecified), the GI50 in the experiment on RPMI-8226 was 14.8 µM (inactive); with SK-MEL-2, 21.7 µM (inactive); with HT-29, 19.1 µM (inactive); in the experiment on RXF 393, 24.9 µM (inactive); in the experiment on SK-MEL-5, 13.2 µM (inactive); in the experiment with MDA-MB-435, 20.1 µM (inactive). The GI50 in the experiment with NCI/ADR-RES was 22.5 µM (inactive); with MDA-MB-231, 22 µM (inactive); with HOP-62, 33.7 µM (inactive); in the experiment on SK-OV-3, 51.8 µM (inactive); in the experiment with MDA-N it was 17 µM (inactive); in the experiment with DU-145, 14.4 µM (inactive).
With `Cc1ccccc1-c1nc2c(C(=O)NCCN(C)C)cccc2[nH]1`, the GI50 was 31.5 µM (inactive) with DMS-273; 27.7 µM (inactive) with RPMI-8226; > 85.3 µM (inactive) with SK-MEL-2; 31.8 µM (inactive) with HT-29; 78.9 µM (inactive) in the experiment with RXF 393; 21.7 µM (inactive) in the experiment on SK-MEL-5. For the same molecule, the GI50 in the experiment with NCI/ADR-RES is 34.3 µM (inactive); in the experiment with HOP-18, 8.02 µM (inactive); in the experiment with KM-20L2, 25.6 µM (inactive); in the experiment with XF498, 39.7 µM (inactive); with CAKI-1, 47.6 µM (inactive); with HOP-62, 31.5 µM (inactive). The GI50 was 46.5 µM (inactive) in the experiment on SK-OV-3 and 47.5 µM (inactive) in the experiment with DMS-114.
`O=C1c2ccccc2N1C(=O)c1ccccc1[N+](=O)[O-]`: the GI50 with RPMI-8226 was 64.4 µM (inactive); in the experiment on SK-MEL-2, 90.8 µM (inactive); with HT-29, 88.1 µM (inactive); with SK-MEL-5, 51.8 µM (inactive); with T47D, > 100 µM (inactive); in the experiment on MDA-MB-435 it was > 100 µM (inactive). Moreover, the GI50 in the experiment on CAKI-1 is 92 µM (inactive); with HOP-62, 45.4 µM (inactive); in the experiment on SK-OV-3, > 100 µM (inactive); in the experiment on MDA-N, 74.6 µM (inactive); in the experiment on DU-145 it was > 100 µM (inactive).
`NC(=O)Oc1ccccc1` [CARBAMIC ACID PHENYL ESTER]: the GI50 in the experiment with HT-29, in the experiment with RXF 393, with SK-MEL-5, in the experiment on T47D, with MDA-MB-435 and in the experiment with NCI/ADR-RES was > 100 µM (inactive) in each case. Besides, the GI50 with MDA-MB-231, in the experiment on SK-OV-3, in the experiment on MDA-N and in the experiment with DU-145 was > 100 µM (inactive) throughout.
For `COCCOCOc1ccc(OCc2ccccc2)cc1`, the GI50 with DMS-273 is > 94.6 µM (inactive); with RPMI-8226, > 49.5 µM (inactive); with SK-MEL-2, > 82.6 µM (inactive); in the experiment with HT-29 it was > 100 µM (inactive); in the experiment on RXF 393 it was > 100 µM (inactive); in the experiment with SK-MEL-5, 35 µM (inactive). The GI50 is > 82.8 µM (inactive) with NCI/ADR-RES; > 100 µM (inactive) in the experiment with HOP-18; > 100 µM (inactive) with KM-20L2; > 100 µM (inactive) in the experiment on XF498; 2.25 µM (inactive) in the experiment with CAKI-1; > 100 µM (inactive) in the experiment with HOP-62. The results for the GI50 with SK-OV-3 and in the experiment on DMS-114 were > 100 µM (inactive) and 40.9 µM (inactive), respectively.
As for `COc1cc2c(cc1Oc1ccc(OC)c3c1CC1c4c(cc(OC)c(OC)c4-3)CCN1C)CC1c3c(cc(OC)c(OC)c3-2)CCN1C` (stereo unspecified), the GI50 with DMS-273 was 1.02 µM (active); in the experiment on RPMI-8226, 0.221 µM (active); in the experiment on SK-MEL-2, 1.74 µM (inactive); with HT-29, 0.35 µM (active); in the experiment on RXF 393 it was 1.52 µM (inactive); in the experiment on SK-MEL-5, 1.64 µM (inactive). Further, the GI50 in the experiment with NCI/ADR-RES is 4.51 µM (inactive); in the experiment with HOP-18, 14 µM (inactive); in the experiment with KM-20L2, 0.957 µM (active); in the experiment with XF498, 1.98 µM (inactive); in the experiment on CAKI-1, 2.1 µM (inactive); with HOP-62, 17.1 µM (inactive). For the same molecule, the GI50 in the experiment on SK-OV-3 is 17.8 µM (inactive).
